Values quoted from earlier work as cited in PubChem BioAssay AID1259410 (Chemical Carcinogenesis Research Information System (CCRIS), 2018).

Tested on: rodent tumor promotion studies, tumor incidence
Experiment: CCRIS tumor promotion studies

[O-][Br+2]([O-])O
outcome (Carcinogen: 7,12-Dimethylbenz[a]anthracene, 57-97-6, Doses [Carcinogen]: 20 nmole as a single topical application, Doses [Promoter]: 0, 40 mg/ml on skin for 51 wk (study duration: 51 wk), Route [Carcinogen]: Dermal, Route [Promoter]: Dermal, Species: Mouse, Strain/Sex: Sencar/Female (20/group)): skin: negative as both a complete carcinogen and as a promoter | outcome (Carcinogen: N-ETHYL-N-HYDROXYETHYLNITROSAMINE, 13147-25-6, Doses [Carcinogen]: 500 PPM IN DRINKING WATER FOR 2 WK, Doses [Promoter]: 0, 500 PPM IN DRINKING WATER BEGINNING POST CARCINOGEN TREATMENT AND CONTINUING FOR 24 WK (STUDY DURATION: 26 WK), Route [Carcinogen]: ORAL, Route [Promoter]: ORAL, Species: RAT, Strain/Sex: F344/MALE): kidney: tumors | outcome (Carcinogen: N-Ethyl-N-hydroxyethylnitrosamine, 13147-25-6, Doses [Carcinogen]: 0.05% in drinking water for 2 wk, Doses [Promoter]: 0, 500 ppm in drinking water beginning post carcinogen treatment and continuing for 30 wk (study duration: 32 wk), Route [Carcinogen]: Oral, Route [Promoter]: Oral, Species: Rat, Strain/Sex: F344/Female (15/group)): kidney: renal cell tumors | outcome (Carcinogen: N-Ethyl-N-hydroxyethylnitrosamine, 13147-25-6, Doses [Carcinogen]: 500 ppm in drinking water for 2 wk, Doses [Promoter]: 0, 15, 30, 60, 125, 250, 500 ppm in drinking water beginning post carcinogen treatment and continuing for 24 wk (study d, Doses [Promoter]: 0, 15, 30, 60, 125, 250, 500 ppm in drinking water beginning post carcinogen treatment and continuing for 24 wk (study d, Route [Carcinogen]: Oral, Route [Promoter]: Oral, Species: Rat, Strain/Sex: F344/Male (15/group)): kidney: renal cell tumors

Oc1cc(O)c2c(c1)O[C@H](c1ccc(O)c(O)c1)[C@@H](O)C2
outcome (Carcinogen: N-METHYL-N'-NITRO-N-NITROSOGUANIDINE, 70-25-7, Doses [Carcinogen]: 150 MG/KG BW ONCE, Doses [Promoter]: 0, 0.8% IN DIET FOR 51 D BEGINNING 1 WK POST CARCINOGEN DOSE (STUDY DURATION: 52 WK), Route [Carcinogen]: GAVAGE, Route [Promoter]: ORAL, Species: RAT, Strain/Sex: F344/MALE): forestomach: carcinoma; glandular stomach: adenocarcinoma

CCCCCCCCCCCC1(CCCC(=O)OC2C(C)C3(O)C(C=C(CO)CC4(O)C(=O)C(C)=CC43)C3C(C)(C)C23OC(C)=O)OCC(C)(C)N1[O] (stereo not given)
outcome (Carcinogen: 7,12-DIMETHYLBENZ[A]ANTHRACENE, 57-97-6, Doses [Carcinogen]: 100 NMOL ONCE, Doses [Promoter]: 0, 5 NMOL 2/WK FOR 24 WK BEGINNING 1 WK POST CARCINOGEN DOSE (STUDY DURATION: 25 WK), Route [Carcinogen]: DERMAL, Route [Promoter]: DERMAL, Species: MOUSE, Strain/Sex: NMRI/FEMALE): skin: tumor

CC(C)(Oc1ccc(C2CCCc3ccccc32)cc1)C(=O)O (stereo not given)
outcome (Carcinogen: DIETHYLNITROSAMINE, 55-18-5, 2-ACETYLAMINOFLUORENE, 6292-55-3, CARBON TETRACHLORIDE, 56-23-5, Carcinogen: DIETHYLNITROSAMINE, 55-18-5, 2-ACETYLAMINOFLUORENE, 6292-55-3, CARBON TETRACHLORIDE, 56-23-5, Doses [Carcinogen]: 200 MG/KG ONCE FOLLOWED 2 WK LATER BY 0.03% 2-ACETYLAMINOFLUORENE IN DIET FOR 2 WK PLUS 2 ML/KG CARBON TETRACHLORIDE IN, Doses [Promoter]: 0.1% IN DIET STARTING 1 WK POST 2-ACETYLAMINOFLUORENE AND CONTINUED FOR 6 MO (STUDY DURATION: 7 MO), Route [Carcinogen]: INTRAPERITONEAL, ORAL, INTRAGASTRIC, Route [Carcinogen]: INTRAPERITONEAL, ORAL, INTRAGASTRIC, Route [Promoter]: ORAL, Species: RAT, Strain/Sex: WISTAR/MALE): liver: hepatocellular carcinoma

O=C1c2ccccc2C(=O)c2c(O)cccc21
outcome (Carcinogen: METHYLAZOXYMETHANOL ACETATE, 592-62-1, Doses [Carcinogen]: 25 MG/KG BW 1/WK FOR 2 WK, Doses [Promoter]: 0, 1% IN DIET FOR 42 WK BEGINNING 1 WK POST CARCINOGEN TREATMENT (STUDY DURATION: 44 WK), Route [Carcinogen]: INTRAPERITONEAL, Route [Promoter]: ORAL, Species: RAT, Strain/Sex: ACI/FEMALE): intestine: adenoma | outcome (Carcinogen: METHYLAZOXYMETHANOL ACETATE, 592-62-1, Doses [Carcinogen]: 25 MG/KG BW 1/WK FOR 2 WK, Doses [Promoter]: 0, 1% IN DIET FOR 42 WK BEGINNING 1 WK POST CARCINOGEN TREATMENT (STUDY DURATION: 44 WK), Route [Carcinogen]: INTRAPERITONEAL, Route [Promoter]: ORAL, Species: RAT, Strain/Sex: ACI/MALE): intestine: adenoma, adenocarcinoma

CC(C)(Oc1ccc(Cl)cc1)C(=O)O
outcome (Carcinogen: Diethylnitrosamine (DEN), 55-18-5, Doses [Carcinogen]: 30 mg/kg, single injection 12 d before initial administration of clofibrate, Doses [Promoter]: 0.5% in diet for up to 12 or 20 mo, Route [Carcinogen]: Intraperitoneal, Route [Promoter]: Oral, Species: Rat, Strain/Sex: F344/Male (175 divided into 4 groups, Vehicle control, DEN, DEN + clofibrate, and clofibrate)): liver: den injection accelerated the appearance of tumors without detectably mod

O=C1c2c(O)cccc2Cc2cccc(O)c21
outcome (Carcinogen: 7,12-DIMETHYLBENZ(A)ANTHRACENE, Doses [Carcinogen]: TOP, Route [Carcinogen]: DERMAL, Route [Promoter]: DERMAL, Species: MOUSE, Strain/Sex: MALE,FEMALE): integumentary system (skin)

C[C@]12CC[C@H]3[C@@H](CCC4=CC(=O)CC[C@@]43C)[C@@H]1CC[C@@H]2O
outcome (Carcinogen: DIETHYLNITROSAMINE, 55-18-5, Doses [Carcinogen]: 2.5 UG/G BW IN SALINE ONCE, Doses [Promoter]: 0, 0.5-1 MG IN PELLET IMPLANTED 1/MONTH FOR 30 WK BEGINNING 30 D POST CARCINOGEN TREATMENT. DOSING BEGAN SAME DAY OF BIL, Route [Carcinogen]: INTRAPERITIONEAL, Route [Promoter]: SUBCUTANEOUS, Species: MOUSE, Strain/Sex: B6C3F1/FEMALE): liver: tumor

O=c1cc(CO)occ1O
outcome (Carcinogen: N-NITROSOBIS(2-HYDROXYPROPYL)AMINE;53609-64-6, Doses [Carcinogen]: 2000 MG/KG BW ONCE, Doses [Promoter]: 0, 0.002%, 0.008%, 0.03%, 0.125%, 0.5%, 2% IN DIET FOR 20 WK BEGINNING 1 WK POST CARCINOGEN TREATMENT (STUDY DURATION: 2, Doses [Promoter]: 0, 0.002%, 0.008%, 0.03%, 0.125%, 0.5%, 2% IN DIET FOR 20 WK BEGINNING 1 WK POST CARCINOGEN TREATMENT (STUDY DURATION: 2, Route [Carcinogen]: SUBCUTANEOUS, Route [Promoter]: ORAL, Species: RAT, Strain/Sex: F344/MALE): thyroid gland: adenoma, carcinoma

CCCCCCCCCCCCCC(=O)OCC1=C[C@H]2C3C(C)(C)C3(OC(C)=O)[C@H](OC(=O)CCCCCCCCCCCCC)[C@@H](C)[C@]2(O)[C@@H]2C=C(C)C(=O)[C@]2(O)C1 (stereo not given in full)
outcome (Carcinogen: 7,12-DIMETHYLBENZ[A]ANTHRACENE, 57-97-6, Doses [Carcinogen]: 100 NMOL ONCE, Doses [Promoter]: 0, 50, 100, 200 NMOL 2/WK FOR 24 WK BEGINNING 1 WK POST CARCINOGEN DOSE (STUDY DURATION: 25 WK), Doses [Promoter]: 0, 50, 100, 200 NMOL 2/WK FOR 24 WK BEGINNING 1 WK POST CARCINOGEN DOSE (STUDY DURATION: 25 WK), Route [Carcinogen]: DERMAL, Route [Promoter]: DERMAL, Species: MOUSE, Strain/Sex: NMRI/FEMALE): skin: tumor

C[C@H](N)C(=O)NCC(=O)N[C@H]1CSSC[C@@H](C(=O)O)NC(=O)[C@H](CO)NC(=O)[C@H]([C@@H](C)O)NC(=O)[C@H](Cc2ccccc2)NC(=O)[C@H]([C@@H](C)O)NC(=O)[C@H](CCCCN)NC(=O)[C@H](Cc2c[nH]c3ccccc23)NC(=O)[C@H](Cc2ccccc2)NC(=O)[C@H](Cc2ccccc2)NC(=O)[C@H](CC(N)=O)NC(=O)[C@H](CCCCN)NC1=O
outcome (Carcinogen: N-METHYL-N'-NITRO-N-NITROSOGUANIDINE, 70-25-7, Doses [Carcinogen]: 25 UG/ML DRINKING WATER FOR 25 WK, Doses [Promoter]: 0, 100, 200 UG/KG IN OLIVE OIL 1/2 D BEGINNING POST CARCINOGEN DOSE FOR DURATION OF STUDY (STUDY DURATION: 52 WK), Doses [Promoter]: 0, 100, 200 UG/KG IN OLIVE OIL 1/2 D BEGINNING POST CARCINOGEN DOSE FOR DURATION OF STUDY (STUDY DURATION: 52 WK), Route [Carcinogen]: ORAL, Route [Promoter]: SUBCUTANEOUS, Species: RAT, Strain/Sex: WISTAR/MALE): glandular stomach: adenocarcinoma

O=C(O)C(Cl)(Cl)Cl
outcome (Carcinogen: N-METHYL-N-NITROSOUREA, 684-93-5, Doses [Carcinogen]: 25 MG/KG IN STERILE SALINE ONCE, Doses [Promoter]: 0, 25 MMOL/L IN DRINKING WATER FOR 44 WK BEGINNING 2 WK POST CARCINOGEN DOSE (STUDY DURATION: 46 WK), Route [Carcinogen]: INTRAPERITONEAL, Route [Promoter]: ORAL, Species: MOUSE, Strain/Sex: B6C3F1/FEMALE): liver: adenoma | outcome (Carcinogen: N-METHYL-N-NITROSOUREA, 684-93-5, Doses [Carcinogen]: 25 MG/KG ONCE AT 15 D OF AGE, Doses [Promoter]: 0, 20 NMOL/L IN DRINKING WATER FOR 31 WK BEGINNING AT 7 WK OF AGE (STUDY DURATION: 31 WK), Route [Carcinogen]: INTRAPERITONEAL, Route [Promoter]: ORAL, Species: MOUSE, Strain/Sex: B6C3F1/FEMALE): liver: adenoma | outcome (Carcinogen: N-METHYL-N-NITROSOUREA, 684-93-5, Doses [Carcinogen]: 25 MG/KG ONCE AT 15 D OF AGE, Doses [Promoter]: 0, 20 NMOL/L IN DRINKING WATER FOR 31 WK BEGINNING AT 7 WK OF AGE (STUDY DURATION: 52 WK), Route [Carcinogen]: INTRAPERITONEAL, Route [Promoter]: ORAL, Species: MOUSE, Strain/Sex: B6C3F1/FEMALE): liver: adenoma, carcinoma | outcome (Carcinogen: N-METHYL-N-NITROSOUREA, 684-93-5, Doses [Carcinogen]: 25 MMG/KG ONCE AT 15 D OF AGE, Doses [Promoter]: 0, 6.67, 20 NMOL/L IN DRINKING WATER FOR 52 WK BEGINNING AT 7 WK OF AGE (STUDY DURATION: 52 WK), Doses [Promoter]: 0, 6.67, 20 NMOL/L IN DRINKING WATER FOR 52 WK BEGINNING AT 7 WK OF AGE (STUDY DURATION: 52 WK), Route [Carcinogen]: INTRAPERITONEAL, Route [Promoter]: ORAL, Species: MOUSE, Strain/Sex: B6C3F1/FEMALE): liver: adenoma, carcinoma

CCCCCCCCCC(=O)OC
outcome (Carcinogen: 7,12-DIMETHYLBENZ(A)ANTHRACENE, Doses [Carcinogen]: TOP, Route [Carcinogen]: DERMAL, Route [Promoter]: DERMAL, Species: MOUSE, Strain/Sex: FEMALE): integumentary system (skin)
